14 molecules from patent publication US20040043043A1, “Preparation of emulsions and concentrates thereof” (priority 2000, published 2004) can be followed below.

The nature of data set [1]: Chemical stability study: vitamin contents on storage at 20 °C/ambient RH. Format: physicochemical. Conditions: for Degraded / Content after 18 months / Recovery (initial versus nominal): Example 4 syrup; for Degraded: 18 months at 20 °C/ambient RH, '+' = increase; for Recovery (initial versus nominal): two batches; for Initial content: Example 4 vitamin and mineral syrup.

Test in data set [2]: as above
Format: physicochemical. To be noted: Example 1 syrup; for Degraded: 18 months at 20 °C/ambient RH, '+' = increase; for Recovery (initial versus nominal): two batches. On the procedure: A stability study was carried out in order to investigate the chemical stability of the liquid multivitamin product. The product was manufactured according to the protocol set out in Example 1. Two production batches were prepared and subjected to a stability study. The following sampling times were used:
20° C./ambient 0, 3, 6, 12 and 18 months Relative Humidity (RH):
The following results for the vitamin contents after 18 months were obtained for the two production batches respectively at 20° C./ambient RH: […]

Turning to `Cc1c(C)c2c(c(C)c1O)CC[C@@](C)(CCC[C@H](C)CCC[C@H](C)CCCC(C)C)O2` [D-α-tocopherol], the Degraded came to 4.0% in data set [1] and 2% in data set [2]. The “Content after 18 months” value is on record as 12.0 IU/5 ml in data set [1] (batch 1, 20 °C/ambient RH) and 11.9 IU/5 ml in data set [1] (batch 2, 20 °C/ambient RH). Moreover, the entries for the “Recovery (initial versus nominal)” value in data set [1] and in data set [2] were 103.8% and 99.2%, respectively. The Initial content in data set [1] (batch 1, time 0) was found to be 12.5 IU/5 ml; in data set [1] (batch 2, time 0), 12.4 IU/5 ml. Also, the “Vitamin content after 18 months” value in data set [2] (batch 1, 20 °C/ambient RH) stood at 6.1 mg/10 ml; in data set [2] (batch 2, 20 °C/ambient RH), 6.2 mg/10 ml. The Initial vitamin content stood at 6.2 mg/10 ml in data set [2] (production batch 1, time 0) and 6.3 mg/10 ml in data set [2] (production batch 2, time 0).

With `O=C(O)CCCC[C@@H]1SC[C@@H]2NC(=O)N[C@@H]21` [Biotin], the Degraded in data set [1] came out at 9.8%. Moreover, the “Content after 18 months” value turned out to be 103 μg/5 ml in data set [1] (batch 1, 20 °C/ambient RH) and 100 μg/5 ml in data set [1] (batch 2, 20 °C/ambient RH). In addition, the “Recovery (initial versus nominal)” value in data set [1] came out at 102.3%. In addition, the Initial content in data set [1] (batch 1, time 0) came out at 109 μg/5 ml; in data set [1] (batch 2, time 0) it was 116 μg/5 ml.

As for `Cc1ncc(CO)c(CO)c1O` [Pyridoxine], the Degraded entry in data set [1] was “+1.1%”; in data set [2] it was “+2%”. The “Content after 18 months” value is listed as 0.89 mg/5 ml in data set [1] (batch 1, 20 °C/ambient RH) and 0.88 mg/5 ml in data set [1] (batch 2, 20 °C/ambient RH). Further, the “Recovery (initial versus nominal)” value in data set [1] was 99.4%; in data set [2] it was 96.4%. Also, the Initial content is listed as 0.88 mg/5 ml in data set [1] (batch 1, time 0) and 0.87 mg/5 ml in data set [1] (batch 2, time 0). The “Vitamin content after 18 months” value stood at 1.25 mg/10 ml in data set [2] (batch 1, 20 °C/ambient RH) and 1.24 mg/10 ml in data set [2] (batch 2, 20 °C/ambient RH). Besides, the Initial vitamin content in data set [2] (production batch 1, time 0) is recorded as 1.21 mg/10 ml; in data set [2] (production batch 2, time 0), 1.22 mg/10 ml.

On to `[Zn]` [Zinc], for which, in data set [1], the Degraded amounted to 1.2%. The “Content after 18 months” value in data set [1] (batch 1, 20 °C/ambient RH) is given as 8.4 mg/5 ml; in data set [1] (batch 2, 20 °C/ambient RH), 8.2 mg/5 ml. For the same molecule, the “Recovery (initial versus nominal)” value in data set [1] is 102.5%. Besides, the Initial content in data set [1] (batch 1, time 0) was 8.2, 8.2 mg/5 ml; in data set [1] (batch 2, time 0), 8.2, 8.2 mg/5 ml.

For the molecule `Cc1cc2nc3c(=O)[nH]c(=O)nc-3n(C[C@H](O)[C@H](O)[C@H](O)CO)c2cc1C` [Riboflavine], the figures for the Degraded in data set [1] and in data set [2] were 4.0% and “+2%”, respectively. Further, the “Content after 18 months” value is recorded as 1.19, 1.19 mg/5 ml in data set [1] (batch 1, 20 °C/ambient RH) and 1.19, 1.19 mg/5 ml in data set [1] (batch 2, 20 °C/ambient RH). Further, the results for the “Recovery (initial versus nominal)” value in data set [1] and in data set [2] were 93.9% and 95.9%, respectively. Moreover, the Initial content in data set [1] (batch 1, time 0) came to 1.25 mg/5 ml; in data set [1] (batch 2, time 0) it was 1.23 mg/5 ml. The “Vitamin content after 18 months” value in data set [2] (batch 1, 20 °C/ambient RH) amounted to 1.08 mg/10 ml; in data set [2] (batch 2, 20 °C/ambient RH) it was 1.09 mg/10 ml. The Initial vitamin content turned out to be 1.05 mg/10 ml in data set [2] (production batch 1, time 0) and 1.06 mg/10 ml in data set [2] (production batch 2, time 0).

Consider Vitamin B12, for which the Degraded in data set [1] turned out to be 16.7%. The “Content after 18 months” value in data set [1] (batch 1, 20 °C/ambient RH) stood at 9.7 μg/5 ml; in data set [1] (batch 2, 20 °C/ambient RH) it was 9.8 μg/5 ml. Further, the “Recovery (initial versus nominal)” value in data set [1] worked out at 104.5%. In addition, the Initial content in data set [1] (batch 1, time 0) stood at 11.6 μg/5 ml; in data set [1] (batch 2, time 0), 11.8 μg/5 ml.

For `Nc1nc2ncc(CNc3ccc(C(=O)N[C@@H](CCC(=O)O)C(=O)O)cc3)nc2c(=O)[nH]1` [Folic acid], the Degraded in data set [1] is 7.9%; in data set [2], 21%. The “Content after 18 months” value in data set [1] (batch 1, 20 °C/ambient RH) is listed as 255 μg/5 ml; in data set [1] (batch 2, 20 °C/ambient RH) it was 244 μg/5 ml. For the same molecule, the “Recovery (initial versus nominal)” value worked out at 96.8% in data set [1] and 102.4% in data set [2]. The Initial content in data set [1] (batch 1, time 0) was 276 μg/5 ml; in data set [1] (batch 2, time 0) it was 266 μg/5 ml. In addition, the “Vitamin content after 18 months” value in data set [2] (batch 1, 20 °C/ambient RH) stood at 71.4 μg/10 ml; in data set [2] (batch 2, 20 °C/ambient RH), 72.5 μg/10 ml. For the same molecule, the Initial vitamin content came to 92.1 μg/10 ml in data set [2] (production batch 1, time 0) and 92.2 μg/10 ml in data set [2] (production batch 2, time 0).

In the case of `NC(=O)c1cccnc1` [Nicotinamide], the Degraded in data set [1] stood at 4.7%; in data set [2], 4%. For the same molecule, the “Content after 18 months” value came to 18.5 mg/5 ml in data set [1] (batch 1, 20 °C/ambient RH) and 18.4 mg/5 ml in data set [1] (batch 2, 20 °C/ambient RH). For the same molecule, the entries for the “Recovery (initial versus nominal)” value in data set [1] and in data set [2] were 100.8% and 97.2%, respectively. Further, the Initial content in data set [1] (batch 1, time 0) was 19.5 mg/5 ml; in data set [1] (batch 2, time 0) it was 19.2 mg/5 ml. Besides, the “Vitamin content after 18 months” value in data set [2] (batch 1, 20 °C/ambient RH) is listed as 11.6 mg/10 ml; in data set [2] (batch 2, 20 °C/ambient RH) it was 11.9 mg/10 ml. Also, the Initial vitamin content in data set [2] (production batch 1, time 0) was determined as 12.2 mg/10 ml; in data set [2] (production batch 2, time 0), 12.3 mg/10 ml.

Regarding `CC1=C(/C=C/C(C)=C/C=C/C(C)=C/CO)C(C)(C)CCC1` [Retinol], the Degraded in data set [1] came out at 13%; in data set [2] it was 16%. Also, the “Content after 18 months” value is recorded as 1869 IU/5 ml in data set [1] (batch 1, 20 °C/ambient RH) and 1862 IU/5 ml in data set [1] (batch 2, 20 °C/ambient RH). Besides, the “Recovery (initial versus nominal)” value in data set [1] is listed as 110.0%; in data set [2], 113%. Moreover, the Initial content in data set [1] (batch 1, time 0) is 2145, 2145 IU/5 ml; in data set [1] (batch 2, time 0) it was 2145, 2145 IU/5 ml. Also, the “Vitamin content after 18 months” value in data set [2] (batch 1, 20 °C/ambient RH) stood at 518 μg/10 ml; in data set [2] (batch 2, 20 °C/ambient RH) it was 525 μg/10 ml. Moreover, the Initial vitamin content in data set [2] (production batch 1, time 0) is listed as 623 μg/10 ml; in data set [2] (production batch 2, time 0) it was 628 μg/10 ml.

With `C=C1CC[C@H](O)C/C1=C/C=C1\CCC[C@]2(C)[C@@H]([C@H](C)CCCC(C)C)CC[C@@H]12` [Cholecalciferol], the values for the Degraded entry in data set [1] and in data set [2] were “+2.5%” and 10%, respectively. Besides, the “Content after 18 months” value was 519 IU/5 ml in data set [1] (batch 1, 20 °C/ambient RH) and 502 IU/5 ml in data set [1] (batch 2, 20 °C/ambient RH). Moreover, the “Recovery (initial versus nominal)” value in data set [1] is reported as 92.2%; in data set [2], 97.6%. Further, the Initial content in data set [1] (batch 1, time 0) is recorded as 502 IU/5 ml; in data set [1] (batch 2, time 0), 494 IU/5 ml. Further, the “Vitamin content after 18 months” value is 7.3, 7.3 μg/10 ml in data set [2] (batch 1, 20 °C/ambient RH) and 7.3, 7.3 μg/10 ml in data set [2] (batch 2, 20 °C/ambient RH). The Initial vitamin content is reported as 8.0 μg/10 ml in data set [2] (production batch 1, time 0) and 8.1 μg/10 ml in data set [2] (production batch 2, time 0).

`Cc1ncc(C[n+]2csc(CCO)c2C)c(N)n1` [Thiamine]: the Degraded in data set [1] is listed as 7.9%; in data set [2], 8%. For the same molecule, the “Content after 18 months” value in data set [1] (batch 1, 20 °C/ambient RH) is given as 1.16, 1.16 mg/5 ml; in data set [1] (batch 2, 20 °C/ambient RH) it was 1.16, 1.16 mg/5 ml. For the same molecule, the “Recovery (initial versus nominal)” value amounted to 96.9% in data set [1] and 97.5% in data set [2]. The Initial content in data set [1] (batch 1, time 0) is reported as 1.27 mg/5 ml; in data set [1] (batch 2, time 0) it was 1.25 mg/5 ml. The “Vitamin content after 18 months” value came out at 0.88 mg/10 ml in data set [2] (batch 1, 20 °C/ambient RH) and 0.89 mg/10 ml in data set [2] (batch 2, 20 °C/ambient RH). The Initial vitamin content in data set [2] (production batch 1, time 0) stood at 0.96 mg/10 ml; in data set [2] (production batch 2, time 0), 0.97 mg/10 ml.

Take `CC(C)(CO)[C@@H](O)C(=O)NCCC(=O)O` [Pantothenic acid]: the Degraded in data set [1] is given as 11.1%; in data set [2], 16%. The “Content after 18 months” value in data set [1] (batch 1, 20 °C/ambient RH) was 9.2, 9.2 mg/5 ml; in data set [1] (batch 2, 20 °C/ambient RH), 9.2, 9.2 mg/5 ml. For the same molecule, the “Recovery (initial versus nominal)” value was found to be 101.5% in data set [1] and 98.9% in data set [2]. The Initial content in data set [1] (batch 1, time 0) was 10.4 mg/5 ml; in data set [1] (batch 2, time 0) it was 10.3 mg/5 ml. For the same molecule, the “Vitamin content after 18 months” value is reported as 3.6, 3.6 mg/10 ml in data set [2] (batch 1, 20 °C/ambient RH) and 3.6, 3.6 mg/10 ml in data set [2] (batch 2, 20 °C/ambient RH). Moreover, the Initial vitamin content in data set [2] (production batch 1, time 0) worked out at 4.3 mg/10 ml; in data set [2] (production batch 2, time 0), 4.4 mg/10 ml.

`O=C1O[C@H]([C@@H](O)CO)C(O)=C1O` [Ascorbic acid]: the Degraded in data set [1] amounted to 32.8%; in data set [2], 20%. For the same molecule, the “Content after 18 months” value in data set [1] (batch 1, 20 °C/ambient RH) is on record as 35.7 mg/5 ml; in data set [1] (batch 2, 20 °C/ambient RH), 34.9 mg/5 ml. The results for the “Recovery (initial versus nominal)” value in data set [1] and in data set [2] were 93.8% and 97.4%, respectively. Further, the Initial content in data set [1] (batch 1, time 0) was determined as 53.0 mg/5 ml; in data set [1] (batch 2, time 0), 52.0 mg/5 ml. Besides, the “Vitamin content after 18 months” value stood at 42.8 mg/10 ml in data set [2] (batch 1, 20 °C/ambient RH) and 43.6 mg/10 ml in data set [2] (batch 2, 20 °C/ambient RH). Also, the Initial vitamin content in data set [2] (production batch 1, time 0) was determined as 54.4 mg/10 ml; in data set [2] (production batch 2, time 0), 55.3 mg/10 ml.

Turning to `CC1=C(/C=C/C(C)=C/C=C/C(C)=C/C=C/C=C(C)/C=C/C=C(C)/C=C/C2=C(C)CCCC2(C)C)C(C)(C)CCC1` [Betacaroten], in data set [1], the Degraded result was “+6.3%”. Moreover, the “Content after 18 months” value in data set [1] (batch 1, 20 °C/ambient RH) was 2315 IU/5 ml; in data set [1] (batch 2, 20 °C/ambient RH), 2279 IU/5 ml. For the same molecule, in data set [1], the “Recovery (initial versus nominal)” value is reported as 110.8%. Also, the Initial content in data set [1] (batch 1, time 0) came to 2172 IU/5 ml; in data set [1] (batch 2, time 0), 2148 IU/5 ml.
